# Data as given in US9809521B2, “Cannabidinoid derivatives” (priority 2011, dated 2017).
# Where two headings read alike, the source gives them in different places.
# Experiments:
# Id-1 = assay: Quantitative Western analysis of Id-1 protein expression in MDA-MB231 cells; assay type: cell-based, human; conditions: for Id-1 expression: 1 μM, both MDA-MB231 and 4T1 cells
# Method: Quantitative Western analysis of Id-1 Expression in MDA-MB231 cells with CBD, Δ^9-THC, or WIN 55,212-2. The ability of CBD to regulate the expression of key genes that control breast cancer cell aggressiveness and invasiveness was determined.
# SAR Analysis of Id-1 expression in MDA-MB231 cells with (Abn)-CBD receptor, Abn-CBD, O-1602, CP55,940, THC, CBN, or CBD. In order to determine the structure activity relationship (“SAR”) between cannabinoids and the inhibition of Id-1, MDA-MB231 cells were treated for two days with multiple cannabinoid compounds and Id-1 protein levels were assessed.
# Quantitative Western analysis of Id-1 expression in MDA-MB231 cells and U251 cells with CBD or O-1663 CBD analog. […] MDA-MB231 breast cancer cells and U251 GBM cells were treated with 1.0 μM of cannabinoid for two days and then analyzed for Id-1 protein expression by quantitative Western analysis.
# 4T1 cells [1] = assay: Cell viability assay; assay type: cell-based, mouse; conditions: Mus musculus
# Description: (§1) The structure of O-1442 and O-1663 are almost identical with the exception of one R group. A smaller subset of the same analogs, including O-1442 and O-1663, were further screened for their ability to inhibit 4T1 breast cancer cell viability in anticipation of running in vivo experiments in immune competent mice (TABLE 5).
# MDA-MB231 cells [2] = assay: MTT cell proliferation/viability assay; conditions: for reversal of inhibition of cell viability by CB2 receptor antagonist SR14458: 2 days; for IC50: Homo sapiens
# Description: as §1
# (§2) To directly test whether the O-1663 CBD analog could co-target two distinct cannabinoid antitumor pathways, the effects of CBD and the O-1663 CBD analog on cell viability with multiple antagonists were probed (FIG. 25). […] The ability of the O-1663 CBD analog and CBD to inhibit invasion was next compared (FIG. 25, panel C).
# 4T1 cells [3] = assay: 4T1 i.v. mouse model of breast cancer metastasis, treatment from one day after injection; assay type: in vivo; conditions: for total amount of metastatic foci: 1 mg/kg i.p., 2 days after injection; for effect of CB2 receptor antagonist SR14458 on anti-metastatic activity: 14 days
# Method: In-vivo model of breast cancer metastases: 4T1 cells were injected directly into the tail vein of syngeneic BALB/c mice. […] Two days after i.v. injection of 4T1 cells, the tumor bearing mice were injected i.p. once a day with vehicle or compound (1 mg/kg).
# The 4T1 intravenous (i.v.) mouse model of breast cancer metastasis to assess the activity of CBD in vivo was utilized. […] One day after i.v. injection of the breast cancer cells, mice were treated daily for two weeks by intra-peritoneal injection with vehicle (used as a control) or CBD at a dose range of 0.1 to 5 mg/kg.
# A survival study was carried out (FIG. 4, panel C).
# To provide further support for this hypothesis in vivo, mice bearing 4T1 tumors were treated with CBD and the O-1663 CBD analog in the presence of a CB2 receptor antagonist (FIG. 27, panels D and E). […] In addition, a combination treatment with CBD and THC was included.
# In-vivo studies of breast cancer metastases with CBD or O-1663 CBD analog. 4T1 cells were injected into the tail vein of syngeneic BALB/c mice and then were intraperitoneal injected 2 days later with either vehicle, CBD (1 mg/kg), or O-1663 CBD analog (1 mg/kg).
# p8 and LC3 = assay: p8 mRNA and LC3 (autophagy marker) in MDA-MB231 cells; assay type: cell-based, human; conditions: two days
# ROS = ROS measurement in MDA-MB231 cells; assay type: cell-based, human; conditions: for generation of ROS: two days, approximate IC50 for CBD and THC
# Description: In culture, CBD-induced generation of ROS is a primary mechanism that leads to inhibition of cell growth, invasion, and survival across multiple cancers. The generation of ROS by CBD leads to the inhibition of Id-1 expression in breast cancer cells. […] The ability of CBD and the O-1663 CBD analog to stimulate the production of ROS was next compared. […] The involvement of CB2 receptors in the productions of ROS produced by CBD and the O-1663 CBD analog was next investigated.
# MDA-MB231 cells [4] = assay: Boyden chamber invasion assay; assay type: cell-based, human; conditions: for IC50: Homo sapiens
# Method: Boyden chamber MDA-MB231 cell invasion studies with CBD, Δ^9-THC, or WIN 55,212-2. Invasion is an important step towards breast cancer cell metastasis. Therefore, the effects of several cannabinoids were tested on their ability to modulate the migratory and invasiveness activity of the most aggressive human breast cancer cell line, MDA-MB231, in a reconstituted basement membrane in a Boyden chamber.
# Assays using Id-1 promoter reporter transfected MDA-MB231 cells with CBD. To determine if Id-1 represented a key mediator of CBD effects in highly aggressive breast cancer cells, Id-1 was constitutively expressed into MDA-MB231 cells (+)Id-1 as described in FIG. 2. The ectopic Id-1 gene, which is not under the control of the endogenous promoter, was introduced in the cells using the pLXSN retroviral vector. As a control, cells were infected with an empty pLXSN vector (−)Id-1.
# Boyden chamber MDA-MB231 cell invasion studies with CBD and O-1663 CBD analog. Boyden chamber studies for invasion by MDA-MB231 or U251 cells were performed with either CBD or O-1663 CBD analog.
# as §2
# MDA-MB231 cells [5] = assay: Xenograft mouse model of human breast cancer lung metastasis; assay type: in vivo
# Method: In-vivo metastatic studies using a Xenograph mouse model for human breast cancer with CBD. […] Lung metastases were generated in Nude mice after tail vein injection of 1×10^6 MDA-MB231-luc-D3H2LN cells. One day after the injection, the tumor bearing mice were injected i.p. once a day with vehicle or 0.5 mg/kg and 1 mg/kg CBD for three weeks. Visible lung metastases were then counted and measured by using a dissecting microscope.
# U251 cells = assay: MTT cell proliferation assay; conditions: Homo sapiens
# [6] = MDA-MB-231, read-out: IC50, MDA-MB231
smiles,measurement,setting,value
CCCCC(C)(C)c1cc(O)c(C2CCC(C3CCCCC3)CC2)c(O)c1 (stereo not shown) [Compound O-1663],Id-1 protein expression compared with CBD,"Id-1; 1.0 μM, two days, MDA-MB231 and U251 cells",downregulated Id-1 protein expression to a far greater extent than CBD
same,Id-1 expression,Id-1,almost a complete down-regulation of Id-1 expression
same,IC50,"4T1 cells [1]; 4T1, read-out: IC50, 4T1 cell viability",830 nM
same,reversal of inhibition of cell viability by CB2 receptor antagonist SR14458,MDA-MB231 cells [2]; 4T1 and MDA-MB231 cells,partially reverse the inhibitory effects
same,IC50,MDA-MB231 cells [2]; [6],1200 nM
same,"fold more active than CBD, MDA-MB231 cell viability",MDA-MB231 cells [2]; second screen,2.2 fold
same,animals with a metastatic foci >2 mm,4T1 cells [3]; 1 mg/kg,one of five animals
same,total amount of metastatic foci,4T1 cells [3],reduction of the total amount of metastatic foci
same,effect of CB2 receptor antagonist SR14458 on anti-metastatic activity,4T1 cells [3]; 1 mg/kg,partially reversed by the antagonist
same,fold more potent than CBD at inhibiting lung metastatic foci>2 mm,"4T1 cells [3]; mouse, in vivo",7.0 fold
same,fold more potent than CBD at inhibiting total metastasis,"4T1 cells [3]; mouse, in vivo",2.3 fold
same,up-regulation of p8 and LC3,p8 and LC3,able to up-regulate p8 and the marker of autophagy LC3
same,ROS reversed in the presence of SR14458,ROS,> 50%
same,generation of ROS,ROS,significantly more potent and efficacious than CBD at generating ROS
same,fold more potent than CBD at inhibiting invasion,MDA-MB231 cells [4],1.7 fold
same,invasion by the cancerous cells compared with CBD,"MDA-MB231 cells [4]; 1.0 μM, two days, MDA-MB231 or U251 cells",far superior to CBD in inhibiting invasion
same,IC50,"MDA-MB231 cells [4]; MDA-MB-231, 72 h, read-out: IC50, invasion of MDA-MB231 cells",600 nM
same,"potency compared with CBD, human MDA-MB231 model of metastasis",MDA-MB231 cells [5]; i.p. daily six weeks,more potent than CBD
same,IC50,"U251 cells; U-251, read-out: IC50, U251",530 nM
"C=C(C)[C@@H]1CCC(C)=C[C@H]1c1c(O)cc(CCCCC)cc1O [CBD, cannabidiol]",Id-1 expression,Id-1,partial reduction of Id-1 expression
same,inhibition of Id-1 (structure activity relationship),"Id-1; 1.5 μM, two days",greatest inhibition of Id-1
same,Id-1 protein expression,"Id-1; 0.1, 1.0, 1.5 μM, three days",concentration-dependent inhibition of Id-1 protein expression
same,concentration at which inhibitory effect on Id-1 expression occurred,Id-1; three days,≥ 100 nM
same,IC50,"4T1 cells [1]; 4T1, Table 5, read-out: IC50, 4T1 cell viability",1800 nM
same,reversal of inhibition of cell viability by CB1 receptor antagonist,MDA-MB231 cells [2]; 4T1 and MDA-MB231 cells,had no effect on reversing the activity of CBD
same,reversal of inhibition of cell viability by ROS scavenger α-TOC,MDA-MB231 cells [2]; 4T1 and MDA-MB231 cells,able to reverse the inhibitory effects of CBD
same,reversal of inhibition of cell viability by CB2 receptor antagonist SR14458,MDA-MB231 cells [2]; 4T1 and MDA-MB231 cells,not significant
same,IC50,"MDA-MB231 cells [2]; MDA-MB-231, 72 h, read-out: IC50, antiproliferative, MDA-MB231",1300 nM
same,IC50,MDA-MB231 cells [2]; [6],2200 nM
same,IC50,"MDA-MB231 cells [2]; MDA-MB-231, read-out: IC50, MDA-MB231 cell viability",1900 nM
same,median increase in survival,4T1 cells [3]; 1 mg/kg daily from one day after injection,seven
same,total amount of metastatic foci,4T1 cells [3],reduction of the total amount of metastatic foci
same,effect of CB2 receptor antagonist SR14458 on anti-metastatic activity,4T1 cells [3]; 1 mg/kg,not affected by co-administration with SR14458
same,inhibition of total breast cancer metastasis,"4T1 cells [3]; i.p. daily two weeks, 0.1 to 5 mg/kg",up to 75%
same,"EC50, total breast cancer metastasis","4T1 cells [3]; i.p. daily two weeks, CI=0.2-0.5",0.3 mg/kg
same,up-regulation of p8 and LC3,p8 and LC3,did not produce up-regulation of p8 and LC3
same,reversal of ROS in the presence of SR14458,ROS,small but significant reversal of ROS
same,generation of ROS,ROS,robust up-regulation of ROS
same,"cell invasiveness, (+)Id-1 cells","MDA-MB231 cells [4]; 1.5 μM, two days, cells ectopically expressing Id-1",did not inhibit cell invasiveness
same,"cell invasiveness, control (−)Id-1 cells","MDA-MB231 cells [4]; 1.5 μM, two days, empty pLXSN vector",significant reduction in cell invasiveness
same,invasion of MDA-MB231 cells,"MDA-MB231 cells [4]; 0.1, 1.0 or 1.5 μM",significantly reduced the invasion
same,IC50,"MDA-MB231 cells [4]; MDA-MB-231, 72 h, treated 3 days, modified Boyden chambers, read-out: IC50, invasion of MDA-MB231 cells",1000 nM
same,IC50,"MDA-MB231 cells [4]; MDA-MB-231, Boyden chamber, confidence limits 110-610, read-out: IC50 for invasion",260 nM
same,reduction in the number of metastases,"MDA-MB231 cells [5]; MDA-MB231-luc-D3H2LN, 0.5 mg/kg and 1 mg/kg i.p. for three weeks",≥ 70%
same,IC50,"U251 cells; U-251, 72 h, read-out: CBD IC50, U251",600 nM
same,IC50,"U251 cells; U-251, read-out: IC50, U251",2900 nM
